From PMC13334477 (RSC Medicinal Chemistry, 2026) come the findings set out here.

Where two headings read alike, the source gives them in different places.

In data set [1] the target is G4T4G4 DNA G4 (antiparallel). In words: Native ESI-MS, G4T4G4. Type of data set: binding. The note with it: 10 μM DNA, 20 μM ligand, 100 mM ammonium acetate. Here is the method:
Oligonucleotides were purchased lyophilized and RP-cartridge purified from Eurogentec (Kanaka Eurogentec, Seraing, Belgium), then buffer exchanged with ammonium acetate (5 M; Sigma-Aldrich, Saint-Quentin-Fallavier, France) using Amicon Ultra (3 K cut-off; Merck Millipore, Cork, Ireland). The concentrations of the initial stock solutions of DNA/RNA (∼1 mM) were measured by UV absorbance at 260 nm. Sample solutions were prepared by diluting the appropriate volume of oligonucleotide stock solutions to reach 10 μM of DNA/RNA and 20 μM of ligand, in 100 mM ammonium acetate. The solutions were incubated for 16 h at 4 °C before analysis by mass spectrometry. […] These parameters ensured a good signal intensity without disrupting noncovalent complexes, which was verified using d[G4T4G4]2 as a control. The presented spectra of all DNA/RNA used in this work (Fig. 5, S9 and S10) result from 8 min accumulations. The abundance of each species, M, M + 1L, M + 2L and M + 3L complexes, where M is a monomer oligonucleotide and L is a ligand, was determined from their peak area signals (A), from the sum of the −4, −5 and −6 charge states for DNA and from the sum of the −5, −6 and −7 charge states for RNA, assuming that their response factors are equal. The molar concentrations were then calculated knowing the total amount of oligonucleotide [M]tot: [drawing 1] [drawing 2] [drawing 3] [drawing 4] The concentration of the free ligand, [L]free, was determined from its total concentration [L]tot:[L]free = [L]tot − [M + 1L] − 2[M + 2L] − 3[M + 3L]Apparent consecutive dissociation constants (Kd1, Kd2 and Kd3) were calculated by using the following equations: [drawing 5] [drawing 6] [drawing 7]
We further analysed the formation of the DBA/G4 complexes by native electrospray ionization mass spectrometry (ESI-MS). We initially attempted to analyze DBA binding to the primary G4 targets from HIV-1 (HIVpro1, HIVpro2, LTR4 and rLTR4 RNA). […] These sequences span the major G4 topological classes and provide a representative assessment of DBA binding across diverse G4 architectures. We also included two DNA duplex controls (DK100 and DK66) to evaluate binding selectivity. This ESI-MS approach enables direct determination of binding stoichiometry, quantification of each species in solution, and calculation of dissociation constants (Kd) from the relative abundances of free and bound forms.[88,97]
In the ESI-MS conditions, the rLTR4 G4 (10 μM) forms a dimeric structure. […] Among the six DNA and RNA tested here (Fig. 5B, S9 and S10) only rLTR4 presented 1 : 3 G4/DBA complexes. In all cases but one, the 1 : 1 stoichiometry represents the major species in solution while for rLTR4 it is the 1 : 2 (green). […] For TG4T tetramolecular G4 or G4T4G4 bimolecular G4 only 1 : 1 and 1 : 2 complexes were detected (Fig. S9A and S10A). […] The weakest binding was obtained for the G4T4G4 antiparallel G4 and Htel sequence with Kd1s ranging from 11 μM for to 500 μM (Table 2).

In data set [2] the test system is G4T4G4 (DNA, G4) GGGGTTTTGGGG
As to the kind of experiment: native ESI-MS. The settings on record: 100 mM ammonium acetate (NH4+), no K+; apparent, site 1 of 2; 10 μM DNA, 20 μM ligand, 4 °C incubation.

The test system of data set [3] is HIV-1. The note with it: at 1.56 μM.
In data set [4] the test system is Htel (DNA, G4) AGGGTTAGGGTTAGGGTTAGGG
As to the kind of experiment: native ESI-MS. The settings on record: 100 mM ammonium acetate (NH4+), no K+; apparent, site 1 of 2; 10 μM DNA, 20 μM ligand, 4 °C incubation.

Data set [5] can be described thus: Cell viability assay (CellTiter 96 AQueous One). The class given is cell-based. The note with it: human, at 1.56 μM.

For the molecule `COc1ccc2c(ccc3c2cc2c4ccc(OC)cc4ccc2[n+]3-c2ccccc2)c1` [DBA1], the Kd in data set [1] (read-out: Kd1 G4T4G4) turned out to be 47.1 µM; in data set [1] (read-out: Kd2 G4T4G4), 38.6 µM.

For `COC(=O)c1ccc(-[n+]2c3ccc4cc(OC)ccc4c3cc3c4ccc(OC)cc4ccc32)cc1` [DBA2], the Kd in data set [1] (read-out: Kd1 G4T4G4) was 51.2 µM; in data set [1] (read-out: Kd2 G4T4G4), 33.6 µM.

Take `COc1ccc(-[n+]2c3ccc4cc(OC)ccc4c3cc3c4ccc(OC)cc4ccc32)cc1` [DBA3]: the Kd in data set [1] (read-out: Kd1 G4T4G4) stood at 36.9 µM; in data set [1] (read-out: Kd2 G4T4G4), 37 µM. Moreover, the Kd1 in data set [2] was determined as 36.88 µM.

One may read the viability as a per cent measure of how many cells are alive, often set against a control. On to `COc1ccc2c(ccc3c2cc2c4ccc(OC)cc4ccc2[n+]3-c2ccc([N+](=O)[O-])cc2)c1` [DBA4], for which the Kd in data set [1] (read-out: Kd1 G4T4G4) came to 46.2 µM; in data set [1] (read-out: Kd2 G4T4G4) it was 26.6 µM. Besides, the “reduction of viral infectivity” value in data set [3] is given as “approximately 20%”. Further, in data set [4], the Kd1 is 11.21 µM. The viability at 24 h, 1.56 µM in data set [5] came to 100%.

Turning to `c1ccc(-[n+]2c3ccc4ccccc4c3cc3c4ccccc4ccc32)cc1` [DBA5], the figures for the Kd in data set [1] (read-out: Kd1 G4T4G4) and in data set [1] (read-out: Kd2 G4T4G4) were 129 µM and 33.4 µM, respectively. Also, the “reduction of viral infectivity” value in data set [3] was approximately 40%. For the same molecule, in data set [4], the Kd1 is 14.47 µM. This molecule had a viability at 24 h, 1.56 µM in data set [5] of 100%.
